Experimental findings from paper PMC4906375, “Contribution of Amphipathicity and Hydrophobicity to the Antimicrobial Activity and Cytotoxicity of β-Hairpin Peptides” (ACS Infectious Diseases, 2016) are described below.

Experiment [1] concerns A. baumannii ATCC 19606. The format is cell-based, Acinetobacter baumannii. The settings on record: A. baumannii ATCC 19606; n = 4. On the procedure:
(§1) Both antibacterial and antifungal MIC assays were performed by a broth microdilution plate based method as per CLSI guidelines for antimicrobial susceptibility testing.[53],[54] […] Full assay details are included in the Supporting Information with a full list of strains tested in Table S1.
(§2) Antibacterial assay (Minimum Inhibitory Concentration [MIC]).
(§3) MIC assay was performed by a broth microdilution plate based method as per CLSI guidelines for antimicrobial susceptibility testing of aerobic bacteria.1 Compounds were prepared at 1.28 mg/mL solution in water. The tested strains, Table S1, were cultured in Luria broth (LB) (In Vitro Technologies, USB75852), at 37 °C overnight. A sample of culture was then diluted 40Pfold in fresh Muller Hinton broth (MHB) (Bacto laboratories, 211443) and incubated at 37 °C for 1.5P2 h. The compounds were serially diluted twoPfold across the wells, with compound concentrations ranging from 0.015 µg/mL to 512 µg/mL, plated in duplicate. The resultant midPlog phase cultures were diluted to the final concentration of 1×10^6 CFU/mL, then 50 µL was added to each well of the compoundP containing 96Pwell plates (Corning 3641, NonPbinding Surface [NBS]), giving a final compound concentration range of 0.008 µg/mL to 256 µg/mL and 5x10^5 CFU/mL. All the plates were covered and incubated at 37 °C for 18 h. MICs were determined visually, being defined as the lowest concentration showing no visible growth. Resazurin was added at 0.001% final concentration to each well and incubated for 2 h before MICs were rePread for confirmation using the colour change from blue to pink to indicate wells containing viable cells. The resazurin assay was added in some wells where some form of precipitate was present in otherwise clear wells, making it difficult to ascertain which wells had visible […]
(§4) Antifungal assay (Minimum Inhibitory Concentration [MIC]). MIC assay was performed by a broth microdilution plate based method as per CLSI guidelines for antimicrobial susceptibility testing.2 Fungi strains, Table S1, were cultured for 3 days on Yeast ExtractPPeptone Dextrose (YPD) (SigmaPAldrich, Y1500) agar at 30 °C. A yeast suspension of 1x10^6 to 5x10^6 CFU/mL was prepared from five colonies. These stock suspensions were diluted with Yeast Nitrogen Base (YNB) (Becton Dickinson, 233520) broth to a final concentration of 2.5 ×10^3 CFU/mL. All samples, compounds and standards were plated in 96Pwell plates (Corning 3641, NonPbinding Surface [NBS]), by adding 10 µL of 1.28 mg/mL stock solution to each well and 90 µL of media. Then, the samples were serial diluted (1:2) in 12 concentrations across the plate. The standard antifungal ranged from 256

The test system of experiment [2] is K. pneumoniae ATCC 700603 (MDR). The format is cell-based, Klebsiella pneumoniae. The settings on record: n = 4. On the procedure:
as §1, §2, §3, §4

The subject of experiment [3] is K. pneumoniae BAA 2146 (NDM-1 pos). In kind it is cell-based, Klebsiella pneumoniae. The settings on record: n = 4. On the procedure: as §1, §2, §3, §4
The test system of experiment [4] is K. pneumoniae ATCC 13883. The format is cell-based, Klebsiella pneumoniae. To be noted: K. pneumoniae ATCC 13883; n = 4. On the procedure:
as §1, §2, §3, §4

The subject of experiment [5] is P. aeruginosa ATCC 27853. The format is cell-based, Pseudomonas aeruginosa. To be noted: P. aeruginosa ATCC 27853; n = 4. On the procedure: as §1, §2, §3, §4
Experiment [6] has as its system E. coli ATCC 700926 (K12). The format is cell-based, Escherichia coli. The settings on record: E. coli ATCC 700926 (K12); n = 4. On the procedure:
as §1, §2, §3, §4

In experiment [7] the test system is E. coli MB 4902 (ΔlpxC). In kind it is cell-based, Escherichia coli. The settings on record: n = 4. On the procedure: as §1, §2, §3, §4
The test system of experiment [8] is E. coli ATCC 25922 (control strain). In kind it is cell-based, Escherichia coli. To be noted: E. coli ATCC 25922 (control strain); n = 4. On the procedure:
as §1, §2, §3, §4

The subject of experiment [9] is C. albicans ATCC 90028. Kind of experiment: microbe, parasite or virus in culture. In kind it is cell-based, Candida albicans. To be noted: Candida albicans, ATCC90028; C. albicans ATCC 90028; n = 4; read-out: MIC. On the procedure:
as §1, §2, §3
as §4, with “256 […]” for “256”
(§5) µg/mL to 0.12 µg/mL and compounds from 128 µg/mL to 0.06 µg/mL with final volumes of 50 µL per well, plated in duplicate. Then, 50 µL of the fungi suspension that was previously prepared in YNB broth to the final concentration of 2.5×10^3 CFU/mL, was added to each well of the compoundPcontaining plates, giving a final standard compound concentration range of 128 µg/mL to 0.06 µg/mL and tested compound from 64 µg/mL to 0.03 µg/mL. Plates were covered and incubated at 35 °C for 24 h. Candida albicans MICs were determined by measuring the absorbance at OD530. For Cryptococcus neoformans 10 µL of 0.06 % resazurin were added to the 24 h incubated plates. Then, these plates were incubated for another 3 h.
(§6) Cryptococcus neoformans MICs were determined by measuring the absorbance at OD570P600. […]

Experiment [10] concerns C. neoformans ATCC 208821. Kind of experiment: microbe, parasite or virus in culture. To be noted: Cryptococcus neoformans, ATCC208821; C. neoformans ATCC 208821; n = 4; read-out: MIC. In kind it is cell-based, Cryptococcus neoformans. On the procedure: as §1, §2, §3
as §4, with “256 […]” for “256”
as §5, §6

For experiment [11], the system named is S. aureus ATCC 43300 (MRSA). Nature of the experiment: microbe, parasite or virus in culture. The format is cell-based, Staphylococcus aureus. The settings on record: Staphylococcus aureus. On the procedure:
as §1, §2, §3, §4

The test system of experiment [12] is B. subtilis ATCC 6051. Nature of the experiment: microbe, parasite or virus in culture. The format is cell-based, Bacillus subtilis. To be noted: Bacillus subtilis, ATCC6051. On the procedure:
as §1, §2, §3, §4

In brackets after ≈: the same amount, converted by molar mass.

Consider colistin [reference compound], for which the MIC came out at 0.03 mg/L in experiment [1]; 0.125 mg/L in experiment [2]; 0.03 mg/L in experiment [3]; 0.5 mg/L in experiment [4]; 0.25 mg/L in experiment [5]; 0.03 mg/L in [6]. The MIC in experiment [7] worked out at 0.009 mg/L; in experiment [8], 0.03 mg/L.
In the case of `C[C@@H]1[C@H](O)[C@@H](C)/C=C/C=C/C=C/C=C/C=C/C=C/C=C/[C@H](O[C@@H]2O[C@H](C)[C@@H](O)[C@H](N)[C@@H]2O)C[C@@H]2O[C@](O)(C[C@@H](O)C[C@@H](O)[C@H](O)CC[C@@H](O)C[C@@H](O)CC(=O)O[C@H]1C)C[C@H](O)[C@H]2C(=O)O` [amphotericin B, reference compound], the MIC in experiment [9] turned out to be 0.06 mg/L (≈ 0.0649 µM); in [10] it was 0.015 mg/L (≈ 0.0162 µM).
For the molecule `CN[C@H](CC(C)C)C(=O)N[C@H]1C(=O)N[C@@H](CC(N)=O)C(=O)N[C@H]2C(=O)N[C@H]3C(=O)N[C@H](C(=O)N[C@H](C(=O)O)c4cc(O)cc(O)c4-c4cc3ccc4O)[C@H](O)c3ccc(c(Cl)c3)Oc3cc2cc(c3O[C@@H]2O[C@H](CO)[C@@H](O)[C@H](O)[C@H]2O[C@H]2C[C@](C)(N)[C@H](O)[C@H](C)O2)Oc2ccc(cc2Cl)[C@H]1O` [vancomycin, reference compound], the figures for the MIC in [11] and in [12] were 1 mg/L (≈ 0.69 µM) and 0.25 mg/L (≈ 0.173 µM), respectively.
